Experimental data published in paper PMC7445967, “The Potential of Atractylodin-Loaded PLGA Nanoparticles as Chemotherapeutic for Cholangiocarcinoma” (Asian Pacific Journal of Cancer Prevention : APJCP, 2020).
≈ marks a conversion by molar mass, not a printed value. Like-named read-outs stand apart in the source and are kept apart here.

How the values were obtained:
[1] = tested on: OUMS-36T-1F normal fibroblast cell line; experiment: MTT cytotoxicity assay, OUMS-36T-1F; conditions: for Cell viability: highest concentration (atractylodin 125 µg/mL, ALNPs-1 6,000 µg/mL), range
Protocol: (§1) Human cholangiocarcinoma (CCA) cell lines, CL-6 and HuCC-T1, and normal fibroblast cell line, OUMS-36T-1F, were used for cytotoxicity assay. CL-6 and HuCC-T1 cell lines were cultured in RPMI medium and OUMS-36T-1F cell line was cultured in DMEM medium. Both culture media were prepared as complete medium supplemented with 10% (v/v) FBS and 1% antibiotic-antimycotic solution (100 IU/mL). All cell cultures were maintained at 37°C under 5% CO2 atmosphere and 95% humidity ([…] 150i, Thermo scientific, MA, USA).
(§2) For cytotoxicity assay, the CCA and normal cell lines were exposed to various concentrations of ALNPs-1 (47-6,000 µg/mL, 100 µL each), blank NPs-1 (47-6,000 µg/mL, 100 µL each), atractylodin (1-125 µg/mL), 5-FU (positive control, 1-125 µg/mL), or serum-free medium (negative control) in a 96-well plate. Briefly, 8,000 cells (in 100 µL complete medium) were seeded into each well and pre-incubated at 37°C under 5% CO2 for 24 h. Viability of each cell following exposure to ALNPs-1, blank NPs-1, atractylodin, and 5-FU was determined by MTT assay at 24, 48, and 72 h of exposure (Chittasupho et al., 2017). Absorbance of cell suspension was measured at 550 nm using UV Absorbance Reader (Vario skan flash, Thermo Fisher scientific, MA, USA). Cell viability was calculated using the Equation (4):
(§3) Cell viability %=Absorbance of cell treated with sample/absorbance of negative control cells×100
(§4) IC50 (concentration that inhibits cell growth by 50%) of each compound in each cell line was determined using Graphpad Prism version 7.04 (GraphPad Software, CA, USA). Selectivity index (SI) was determined from the ratio of IC50 of ALNPs-1, atractylodin, or 5-FU in normal cell and CCA cell.

[2] = tested on: HuCC-T1 cholangiocarcinoma cell line; experiment: MTT cytotoxicity assay, HuCC-T1; conditions: for Cell viability: highest concentration (atractylodin 125 µg/mL, ALNPs-1 6,000 µg/mL), range
Protocol: as §1, §2, §3, §4

[3] = tested on: CL-6 cholangiocarcinoma cell line; experiment: MTT cytotoxicity assay, CL-6; conditions: for Cell viability: highest concentration (atractylodin 125 µg/mL, ALNPs-1 6,000 µg/mL), range
Protocol: as §1, §2, §3, §4

[4] = cited from earlier work
[5] = ratio of IC50 in normal cell (OUMS-36T-1F) and HuCC-T1, 24 hours
[6] = ratio of IC50 in normal cell (OUMS-36T-1F) and HuCC-T1, 48 hours
[7] = ratio of IC50 in normal cell (OUMS-36T-1F) and HuCC-T1, 72 hours
[8] = ratio of IC50 in normal cell (OUMS-36T-1F) and CL-6, 24 hours
[9] = ratio of IC50 in normal cell (OUMS-36T-1F) and CL-6, 48 hours
[10] = ratio of IC50 in normal cell (OUMS-36T-1F) and CL-6, 72 hours

O=c1[nH]cc(F)c(=O)[nH]1 [5-FU, 5-fluorouracil]
IC50 ([1]; Homo sapiens, Fibroblast, 24 h): 133 µg/mL (≈ 1020 µM)
IC50 ([1]; Homo sapiens, Fibroblast, 48 h): 49.8 µg/mL (≈ 383 µM)
IC50 ([1]; Homo sapiens, Fibroblast, 72 h): 30.8 µg/mL (≈ 237 µM)
IC50 ([2]; Homo sapiens, HuCCT-1, 24 h): 38.9 µg/mL (≈ 299 µM)
IC50 ([2]; Homo sapiens, HuCCT-1, 48 h): 25.9 µg/mL (≈ 199 µM)
IC50 ([2]; Homo sapiens, HuCCT-1, 72 h): 8.2 µg/mL (≈ 63 µM)
Selectivity index (SI) [2, 5]: 3.41
Selectivity index (SI) [2, 6]: 1.92
Selectivity index (SI) [2, 7]: 3.75
IC50 ([3]; Homo sapiens, 24 h): 77.4 µg/mL (≈ 595 µM)
IC50 ([3]; Homo sapiens, 48 h): 38.8 µg/mL (≈ 299 µM)
IC50 ([3]; Homo sapiens, 72 h): 3.46 µg/mL (≈ 26.6 µM)
Selectivity index (SI) [3, 8]: 1.71
Selectivity index (SI) [3, 9]: 1.28
Selectivity index (SI) [3, 10]: 8.90

C/C=C/C#CC#C/C=C/c1ccco1 [Atractylodin]
Concentrations producing cytotoxic effect against normal cells ([1]; OUMS-36-1F normal cells): 62.5 to 125 µg/mL
IC50 ([1]; OUMS-36T-1F, 24 h exposure, MTT): 84.33 µg/mL (≈ 463 µM)
Cell viability ([1]; OUMS-36T-1F, 24 hours): 39.61-41.50%
IC50 ([1]; OUMS-36T-1F, 48 h exposure, MTT): 58.16 µg/mL (≈ 319 µM)
Cell viability ([1]; OUMS-36T-1F, 48 hours): 14.88-15.37%
IC50 ([1]; OUMS-36T-1F, 72 h exposure, MTT): 69.03 µg/mL (≈ 379 µM)
Cell viability ([1]; OUMS-36T-1F, 72 hours): 6.61-7.92%
IC50 ([2]; HuCC-T1, 24 h exposure, MTT): 53.66 µg/mL (≈ 294 µM)
Cell viability ([2]; HuCC-T1, 24 hours): 23.72-30.39%
IC50 ([2]; HuCC-T1, 48 h exposure, MTT): 59.74 µg/mL (≈ 328 µM)
Cell viability ([2]; HuCC-T1, 48 hours): 16.18-17.18%
IC50 ([2]; HuCC-T1, 72 h exposure, MTT): 76.15 µg/mL (≈ 418 µM)
Cell viability ([2]; HuCC-T1, 72 hours): 16.43-20.57%
Selectivity index (SI) [2, 5]: 1.57
Selectivity index (SI) [2, 6]: 0.97
Selectivity index (SI) [2, 7]: 0.91
Solubility in water ([4]; free atractylodin, ref TGSC Information System, 2019): 7.541 µg/mL (≈ 41.4 µM)
Solubility in water ([4]; soluble in organic solvents such as ethyl acetate, DMSO, acetone, ref ChemFaces, 2018): insoluble in water
IC50 ([3]; CL-6, 24 h exposure, MTT): 56.36 µg/mL (≈ 309 µM)
Cell viability ([3]; CL-6, 24 hours): 24.38-33.56%
IC50 ([3]; CL-6, 48 h exposure, MTT): 37.66 µg/mL (≈ 207 µM)
Cell viability ([3]; CL-6, 48 hours): 9.71-13.89%
IC50 ([3]; CL-6, 72 h exposure, MTT): 52.02 µg/mL (≈ 285 µM)
Cell viability ([3]; CL-6, 72 hours): 9.12-10.27%
Selectivity index (SI) [3, 8]: 1.50
Selectivity index (SI) [3, 9]: 1.54
Selectivity index (SI) [3, 10]: 1.33
